The nature of data set [1]: (§1) Cytotoxicity against Chlorocebus aethiops (African green monkey) Vero cells assessed as cell viability after 3 days by SRB assay. The format is cell-based. Conditions: chlorocebus sabaeus, Vero cells. On the technique in general: Sulforhodamine B stains cellular protein and so reports cell mass.
Another data set deals with Vero. Described as §1. To be noted: chlorocebus sabaeus, vero, 72 h. The format is cell-based.
Another data set has as its system Bacillus subtilis. The data set is described as follows: Antibacterial activity against Bacillus subtilis at 50 ug/well after 24 hr by agar well diffusion method. It is filed as functional, organism-based. (In general: In agar diffusion tests the substance spreads into inoculated agar from a disc or well.)
A further data set has as its system Staphylococcus aureus. The data set is described as follows: Antibacterial activity against Staphylococcus aureus at 50 ug/well after 24 hr by agar well diffusion method. It is filed as functional, organism-based.

Data on 30 compounds can be found in ChEMBL document CHEMBL3044611, “Synthesis of novel Hantzsch dihydropyridines and Biginelli dihydropyrimidines of biological interest: a 3D-QSAR study on their cytotoxicity” (Med Chem Res, 2010).

Values after ≈ are worked out from the molar mass of the structure shown. Active and inactive are the calls of the source. The rule behind the calls is not given here.

A word on the CC50: it is the concentration at which the toxic effect on the cells reaches its halfway point. Usually pCC50 stands for the negative decadic logarithm of the CC50, by convention in mol/L.

On to `COc1ccc(NC(=O)C2=C(C)NC(=O)NC2c2ccc(N(C)C)cc2)cc1` (stereo not given), for which the 50% cytotoxic concentration (CC50) at 72 h in data set [1] turned out to be 236 µg/mL (≈ 620 µM). In addition, the negative-log CC50 (pCC50) in the data set with Vero was 0.207. Also, the outcome in the data set with Bacillus subtilis and with Staphylococcus aureus was inactive.

As for `CC1=C(C(=O)Nc2ccc(Cl)cc2)C(c2ccccc2O)C(C(=O)Nc2ccc(Cl)cc2)=C(C)N1`, the cytotoxic concentration (CC50) at 72 h in data set [1] turned out to be 62 µg/mL (≈ 122 µM). In addition, in the data set on Vero, the negative-log CC50 (pCC50) came to 0.913. Besides, the result in the data set with Bacillus subtilis and with Staphylococcus aureus was inactive.

As to `COc1ccc(NC(=O)C2=C(C)NC(=O)NC2c2ccncc2)cc1` (stereo not given), in data set [1], the CC50 at 72 h worked out at 10 µg/mL (≈ 29.6 µM). Further, the pCC50 in the data set on Vero was determined as 1.529. Moreover, the outcome with Bacillus subtilis and in the data set on Staphylococcus aureus was inactive.

Consider `CC1=C(C(=O)Nc2ccc(Cl)cc2)CC(C(=O)Nc2ccc(Cl)cc2)=C(C)N1`, for which the CC50 at 72 h in data set [1] amounted to 40 µg/mL (≈ 96.1 µM). In addition, the negative-log CC50 (pCC50) in the data set with Vero came to 1.017. Further, the outcome in the data set with Bacillus subtilis and in the data set with Staphylococcus aureus was inactive.

Turning to `COc1ccc(NC(=O)C2=C(C)NC(=S)NC2c2ccccc2O)cc1` (stereo not given), the 50% cytotoxic concentration (CC50) at 72 h in data set [1] worked out at 246 µg/mL (≈ 666 µM). Also, the negative logarithm of the CC50 (pCC50) with Vero is recorded as 0.176. Moreover, the outcome in the data set on Bacillus subtilis and in the data set with Staphylococcus aureus was inactive.

Consider `CC1=C(C(=O)Nc2ccc(Cl)cc2)C(c2ccco2)C(C(=O)Nc2ccc(Cl)cc2)=C(C)N1`, for which, in data set [1], the CC50 at 72 h is 24 µg/mL (≈ 49.8 µM). Besides, in the data set with Vero, the negative-log CC50 (pCC50) was 1.302. The result in the data set with Bacillus subtilis and in the data set on Staphylococcus aureus was inactive.

For the compound `COc1ccc(NC(=O)C2=C(C)NC(=S)NC2c2ccc(OC)cc2)cc1` (stereo not given), the CC50 at 72 h in data set [1] turned out to be 150 µg/mL (≈ 391 µM). Also, in the data set on Vero, the pCC50 stood at 0.408. In addition, the result in the data set with Bacillus subtilis and in the data set with Staphylococcus aureus was inactive.

Take `COc1ccc(NC(=O)C2=C(C)NC(=S)NC2c2cccc([N+](=O)[O-])c2)cc1` (stereo not given): the CC50 at 72 h in data set [1] stood at 80 µg/mL (≈ 201 µM). The pCC50 in the data set with Vero was 0.697. Moreover, the result in the data set with Bacillus subtilis and with Staphylococcus aureus was inactive.

`CC1=C(C(=O)Nc2ccc(Cl)cc2)C(c2cccc([N+](=O)[O-])c2)C(C(=O)Nc2ccc(Cl)cc2)=C(C)N1`: the cytotoxic concentration (CC50) at 72 h in data set [1] amounted to 26 µg/mL (≈ 48.4 µM). The pCC50 in the data set with Vero was found to be 1.315. The outcome with Bacillus subtilis and with Staphylococcus aureus was inactive.

As to `COc1ccc(NC(=O)C2=C(C)NC(=O)NC2c2cccc([N+](=O)[O-])c2)cc1` (stereo not given), in data set [1], the CC50 at 72 h came out at 64 µg/mL (≈ 167 µM). Further, the pCC50 in the data set on Vero stood at 0.776. The result with Bacillus subtilis and in the data set on Staphylococcus aureus was inactive.

As to `COc1ccc(NC(=O)C2=C(C)NC(=S)NC2c2ccccc2)cc1` (stereo not given), the CC50 at 72 h in data set [1] was determined as 15 µg/mL (≈ 42.4 µM). Moreover, the negative logarithm of the CC50 (pCC50) with Vero is listed as 1.371. Further, the result in the data set on Bacillus subtilis and with Staphylococcus aureus was inactive.

`CC1=C(C(=O)Nc2ccc(Cl)cc2)C(c2cccc(Cl)c2)C(C(=O)Nc2ccc(Cl)cc2)=C(C)N1`: the CC50 at 72 h in data set [1] stood at 12 µg/mL (≈ 22.8 µM). Also, in the data set with Vero, the pCC50 turned out to be 1.642. Besides, the result in the data set on Bacillus subtilis and in the data set with Staphylococcus aureus was inactive.

Consider `COc1ccc(C2C(C(=O)Nc3ccc(Cl)cc3)=C(C)NC(C)=C2C(=O)Nc2ccc(Cl)cc2)cc1`, for which the CC50 at 72 h in data set [1] stood at 20 µg/mL (≈ 38.3 µM). For the same compound, the pCC50 in the data set on Vero came out at 1.42. The outcome in the data set with Bacillus subtilis and with Staphylococcus aureus was inactive.

As for `CC1=C(C(=O)Nc2ccc(Cl)cc2)C(/C=C/c2ccccc2)C(C(=O)Nc2ccc(Cl)cc2)=C(C)N1`, the CC50 at 72 h in data set [1] was 21 µg/mL (≈ 40.5 µM). For the same compound, the negative-log CC50 (pCC50) with Vero turned out to be 1.392. Also, the result with Bacillus subtilis and in the data set on Staphylococcus aureus was inactive.

Regarding `COc1ccc(NC(=O)C2=C(C)NC(=O)NC2c2ccco2)cc1` (stereo not given), in data set [1], the cytotoxic concentration (CC50) at 72 h is 210 µg/mL (≈ 642 µM). Further, in the data set with Vero, the negative logarithm of the CC50 (pCC50) was 0.192. For the same compound, the result with Bacillus subtilis and in the data set with Staphylococcus aureus was inactive.

As for `COc1cc(C2C(C(=O)Nc3ccc(Cl)cc3)=C(C)NC(C)=C2C(=O)Nc2ccc(Cl)cc2)ccc1O`, the CC50 at 72 h in data set [1] was determined as 250 µg/mL (≈ 464 µM). Besides, the pCC50 in the data set with Vero is reported as 0.333. The result in the data set on Bacillus subtilis and with Staphylococcus aureus was inactive.

`COc1ccc(NC(=O)C2=C(C)NC(=S)NC2c2cccc(Cl)c2)cc1` (stereo not given): the CC50 at 72 h in data set [1] was determined as 270 µg/mL (≈ 696 µM). In the data set with Vero, the negative logarithm of the CC50 (pCC50) was determined as 0.157. The outcome with Bacillus subtilis and with Staphylococcus aureus was inactive.

Regarding `COc1ccc(NC(=O)C2=C(C)NC(=O)NC2c2ccc(OC)cc2)cc1` (stereo not given), in data set [1], the cytotoxic concentration (CC50) at 72 h came out at 158 µg/mL (≈ 430 µM). Moreover, the negative logarithm of the CC50 (pCC50) in the data set with Vero was determined as 0.367. The result in the data set with Bacillus subtilis and in the data set with Staphylococcus aureus was inactive.

For `CC1=C(C(=O)Nc2ccc(Cl)cc2)C(c2ccccc2)C(C(=O)Nc2ccc(Cl)cc2)=C(C)N1`, the CC50 at 72 h in data set [1] turned out to be 15 µg/mL (≈ 30.5 µM). Also, in the data set on Vero, the negative-log CC50 (pCC50) came to 1.516. Moreover, the result in the data set on Bacillus subtilis and in the data set on Staphylococcus aureus was inactive.

In the case of `COc1ccc(NC(=O)C2=C(C)NC(=O)NC2)cc1`, in data set [1], the cytotoxic concentration (CC50) at 72 h worked out at 200 µg/mL (≈ 765 µM). Further, in the data set on Vero, the pCC50 is on record as 0.116. Besides, the result in the data set with Bacillus subtilis and with Staphylococcus aureus was inactive.

Turning to `COc1ccc(NC(=O)C2=C(C)NC(=O)NC2c2cccc(Cl)c2)cc1` (stereo not given), the CC50 at 72 h in data set [1] was determined as 254 µg/mL (≈ 683 µM). For the same compound, the negative-log CC50 (pCC50) in the data set with Vero was 0.164. Further, the result in the data set on Bacillus subtilis and in the data set on Staphylococcus aureus was inactive.

On to `CC1=C(C(=O)Nc2ccc(Cl)cc2)C(c2ccncc2)C(C(=O)Nc2ccc(Cl)cc2)=C(C)N1`, for which the CC50 at 72 h in data set [1] is 78 µg/mL (≈ 158 µM). Besides, in the data set on Vero, the pCC50 was 0.8. The outcome in the data set with Bacillus subtilis and in the data set on Staphylococcus aureus was inactive.

For the compound `COc1ccc(NC(=O)C2=C(C)N=C(S)NC2c2ccc(O)c(OC)c2)cc1` (stereo not given), in data set [1], the CC50 at 72 h was 8 µg/mL (≈ 20 µM). Besides, the negative-log CC50 (pCC50) in the data set with Vero was 1.698. Besides, the result in the data set with Bacillus subtilis and with Staphylococcus aureus was inactive.

In the case of `CC1=C(C(=O)Nc2ccc(Cl)cc2)C(c2ccc(N(C)C)cc2)C(C(=O)Nc2ccc(Cl)cc2)=C(C)N1`, in data set [1], the CC50 at 72 h was determined as 155 µg/mL (≈ 289 µM). Further, the pCC50 in the data set with Vero came out at 0.538. Besides, the outcome in the data set on Bacillus subtilis and in the data set with Staphylococcus aureus was inactive.

`COc1ccc(NC(=O)C2=C(C)NC(=S)NC2c2ccco2)cc1` (stereo not given): in data set [1], the CC50 at 72 h stood at 230 µg/mL (≈ 670 µM). The negative logarithm of the CC50 (pCC50) in the data set with Vero was 0.173. Besides, the result with Bacillus subtilis and in the data set with Staphylococcus aureus was inactive.

In the case of `COc1ccc(NC(=O)C2=C(C)NC(=S)NC2c2ccc(N(C)C)cc2)cc1` (stereo not given), the CC50 at 72 h in data set [1] turned out to be 500 µg/mL (≈ 1260 µM). Besides, the pCC50 with Vero is given as -0.101. The result with Bacillus subtilis and in the data set with Staphylococcus aureus was inactive.

Regarding `COc1ccc(NC(=O)C2=C(C)NC(=O)NC2c2ccc(O)c(OC)c2)cc1` (stereo not given), the CC50 at 72 h in data set [1] was found to be 8 µg/mL (≈ 20.9 µM). The negative logarithm of the CC50 (pCC50) with Vero came to 1.68. The outcome with Bacillus subtilis and in the data set on Staphylococcus aureus was inactive.

With `COc1ccc(NC(=O)C2=C(C)NC(=O)NC2c2ccccc2O)cc1` (stereo not given), in data set [1], the CC50 at 72 h was 160 µg/mL (≈ 453 µM). For the same compound, the negative-log CC50 (pCC50) with Vero turned out to be 0.343. For the same compound, the result in the data set on Bacillus subtilis and in the data set on Staphylococcus aureus was inactive.

For `COc1ccc(NC(=O)C2=C(C)NC(=O)NC2/C=C/c2ccccc2)cc1` (stereo not given), the 50% cytotoxic concentration (CC50) at 72 h in data set [1] was found to be 15 µg/mL (≈ 41.3 µM). Besides, the pCC50 in the data set on Vero was 1.383. In addition, the outcome in the data set on Bacillus subtilis and in the data set on Staphylococcus aureus was inactive.

With `COc1ccc(NC(=O)C2=C(C)NC(=O)NC2c2ccccc2)cc1` (stereo not given), in data set [1], the 50% cytotoxic concentration (CC50) at 72 h came out at 225 µg/mL (≈ 667 µM). Further, the negative logarithm of the CC50 (pCC50) in the data set with Vero is on record as 0.176. Besides, the outcome in the data set on Bacillus subtilis and in the data set on Staphylococcus aureus was inactive.
